# Assays:
# Assay type in all cases: functional
# [1] = test system: Mus musculus; assay: Median day of death was calculated against L1210 murine leukemia cells in BDF1 male mice at the specified in vivo dose of 90(mg/kg)/day
# [2] = test system: Mus musculus; assay: Percent increase in life span was calculated against L1210 murine leukemia cells in BDF1 male mice at the specified in vivo dose of 90(mg/kg)/day.
# [3] = test system: Mus musculus; assay: Percent increase in life span was calculated against L1210 murine leukemia cells in BDF1 male mice at the specified in vivo dose of 120(mg/kg)/day.
# [4] = test system: Mus musculus; assay: Median day of death was calculated against L1210 murine leukemia cells in BDF1 male mice at the specified in vivo dose of 120(mg/kg)/day
# [5] = test system: Mus musculus; assay: Percent increase in life span was calculated against L1210 murine leukemia cells in BDF1 male mice at the specified in vivo dose of 3.5(mg/kg)/day.
# [6] = test system: Mus musculus; assay: Median day of death was calculated against L1210 murine leukemia cells in BDF1 male mice at the specified in vivo dose of 3.5(mg/kg)/day
structure (smiles),measurement,setting,value
COc1cccc2c1C(=O)c1c(O)c3c(c(O)c1C2=O)C[C@@](O)(C(C)=O)C[C@@H]3O[C@@H]1O[C@H](CO)[C@@H](O)[C@H](O)[C@H]1N,Median day of death,[1],16
same,Increase in life-span,[2],60%
COc1cccc2c1C(=O)c1c(O)c3c(c(O)c1C2=O)C[C@@](O)(C(=O)CO)C[C@@H]3OC1OC(CO)C(O)C(O)C1N (stereo partly specified),Increase in life-span,[3],40%
same,Median day of death,[4],14
COc1cccc2c1C(=O)c1c(O)c3c(c(O)c1C2=O)C[C@@](O)(C(=O)CO)C[C@@H]3O[C@H]1C[C@H](N)[C@H](O)[C@H](C)O1 [DOXORUBICIN],Increase in life-span,[5],40%
same,Median day of death,[6],14
